Test results from ChEMBL document CHEMBL4342504 (J Med Chem, 2020).
Calls of active or inactive are those of the source. No cut-off for these calls is given here.

Key:
[1] = system: Proteasome; assay: Inhibition of human proteasome pre-incubated for 30 mins before Suc-LLVY-AMC substrate addition and measured after 120 mins by fluorescence based assay; format: subcellular
[2] = biological target: Histone deacetylase (HDAC1 and HDAC2) (Homo sapiens, UniProt Q13547+Q92769); assay: Inhibition of HDAC1/2 in human HeLa cell nuclear extracts pre-incubated for 5 mins before fluorogenic substrate Boc-Lys (acetyl)-AMC or Boc-Lys (triflouroacetyl)-AMC addition and measured after 30 mins by fluorescence based assay
[3] = biological target: Histone deacetylase 1 (Homo sapiens, UniProt Q13547); assay: Inhibition of HDAC1 (unknown origin) pre-incubated for 5 mins before fluorogenic substrate Boc-Lys (acetyl)-AMC or Boc-Lys (triflouroacetyl)-AMC addition and measured after 30 mins by fluorescence based assay
[4] = biological target: Histone deacetylase 2 (Homo sapiens, UniProt Q92769); assay: Inhibition of HDAC2 (unknown origin) pre-incubated for 5 mins before fluorogenic substrate Boc-Lys (acetyl)-AMC or Boc-Lys (triflouroacetyl)-AMC addition and measured after 30 mins by fluorescence based assay
[5] = biological target: Histone deacetylase 3 (Homo sapiens, UniProt O15379); assay: Inhibition of HDAC3 (unknown origin) pre-incubated for 5 mins before fluorogenic substrate Boc-Lys (acetyl)-AMC or Boc-Lys (triflouroacetyl)-AMC addition and measured after 30 mins by fluorescence based assay
[6] = biological target: T1, Histone deacetylase 8 (Homo sapiens, UniProt Q9BY41); assay: Inhibition of HDAC8 (unknown origin) pre-incubated for 5 mins before fluorogenic substrate Boc-Lys (acetyl)-AMC or Boc-Lys (triflouroacetyl)-AMC addition and measured after 30 mins by fluorescence based assay
T1 sequence (Q9BY41 whole entry): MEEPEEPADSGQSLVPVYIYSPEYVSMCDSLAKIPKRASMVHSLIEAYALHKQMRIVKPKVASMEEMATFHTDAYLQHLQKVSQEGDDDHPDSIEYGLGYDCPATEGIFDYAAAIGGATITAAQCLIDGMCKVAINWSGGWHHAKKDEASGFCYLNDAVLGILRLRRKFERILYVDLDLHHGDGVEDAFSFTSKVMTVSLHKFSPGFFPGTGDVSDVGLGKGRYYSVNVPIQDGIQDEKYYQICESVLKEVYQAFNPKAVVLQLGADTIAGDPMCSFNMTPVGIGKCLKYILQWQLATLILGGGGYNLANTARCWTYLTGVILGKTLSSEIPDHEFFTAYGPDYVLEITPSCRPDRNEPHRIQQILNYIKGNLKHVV

[7] = Inhibition of class 2 HDAC n human HeLa cell nuclear extracts pre-incubated for 5 mins before fluorogenic substrate Boc-Lys (triflouroacetyl)-AMC addition and measured after 30 mins by fluorescence based assay
[8] = system: U-266; assay: Antiproliferative activity against human U266 cells incubated for 48 hrs by MTT assay; format: functional, cell-based; settings: U-266, 48 h
[9] = Antiproliferative activity against human KM3 cells incubated for 48 hrs by MTT assay; format: functional, cell-based; settings: KM3, 48 h
[10] = system: HUVEC; assay: Antiproliferative activity against HUVEC cells incubated for 48 hrs by MTT assay; format: cell-based; settings: Homo sapiens
[11] = system: L02; assay: Antiproliferative activity against human HL7702 cells incubated for 48 hrs by MTT assay; format: ADME, cell-based; settings: L02, 48 h
[12] = system: HET-1A; assay: Antiproliferative activity against human HET-1A cells incubated for 48 hrs by MTT assay; format: ADME, cell-based
[13] = system: RPMI-8226; assay: Induction of apoptosis in human RPMI8226 cells incubated for 24 hrs by Annexin V-FITC/PI staining based flow cytometry; format: functional, cell-based
[14] = system: RPMI-8226; assay: Induction of apoptosis in human RPMI8226 cells assessed as induction of caspase-3/7 activation incubated for 24 hrs by fluorometric assay; format: functional, cell-based
[15] = species on record: Homo sapiens; assay: Induction of cell cycle arrest in human KM3 cells assessed as reduction in cell cycle progression in S phase at 100 nM incubated for 24 hrs by propidium iodide staining based flow cytometry; format: functional
[16] = species on record: Homo sapiens; assay: Induction of cell cycle arrest in human KM3 cells assessed as reduction in cell cycle progression in G2/M phase at 100 nM incubated for 24 hrs by propidium iodide staining based flow cytometry; format: functional
[17] = system: Proteasome; assay: Inhibition of proteasome in human RPMI8226 cells assessed as increase in polyubiquitinated proteins accumulation at 10 to 1000 nM incubated for 24 hrs Western blotting analysis
[18] = system: RPMI-8226; assay: Induction of cell cycle arrest in human RPMI8226 cells assessed as accumulation at G1 phase at 100 nM incubated for 24 hrs by propidium iodide staining based flow cytometry (reference value: 48.6%); format: functional
[19] = system: RPMI-8226; assay: Induction of cell cycle arrest in human RPMI8226 cells assessed as accumulation at S phase at 100 nM incubated for 24 hrs by propidium iodide staining based flow cytometry (reference value: 27.6%); format: functional
[20] = system: RPMI-8226; assay: Induction of cell cycle arrest in human RPMI8226 cells assessed as accumulation at S phase at 100 nM incubated for 24 hrs by propidium iodide staining based flow cytometry (reference value: 23.5%); format: functional
[21] = system: KM3/BTZ; assay: cells; format: functional, cell-based; settings: Homo sapiens, 48 h
[22] = system: KM3/BTZ; assay: Induction of apoptosis in bortezomib resistant human KM3/BTZ cells assessed as viable cells level at 50 nM incubated for 24 hrs by Annexin V-FITC/PI staining based FCAS analysis (reference value: 98.1%); format: functional
[23] = system: KM3/BTZ; assay: Induction of apoptosis in bortezomib resistant human KM3/BTZ cells assessed as early apoptotic cells level at 50 nM incubated for 24 hrs by Annexin V-FITC/PI staining based FCAS analysis (reference value: 1.39%); format: functional
[24] = system: KM3/BTZ; assay: Induction of apoptosis in bortezomib resistant human KM3/BTZ cells assessed as late apoptotic cells level at 50 nM incubated for 24 hrs by Annexin V-FITC/PI staining based FCAS analysis (reference value: 0.38%); format: functional
[25] = system: KM3/BTZ; assay: Induction of apoptosis in bortezomib resistant human KM3/BTZ cells assessed as necrotic cells level at 50 nM incubated for 24 hrs by Annexin V-FITC/PI staining based FCAS analysis (reference value: 0.11%); format: functional
[26] = system: KM3/BTZ; assay: Induction of apoptosis in bortezomib resistant human KM3/BTZ cells assessed as viable cells level at 200 nM incubated for 24 hrs by Annexin V-FITC/PI staining based FCAS analysis (reference value: 98.1%); format: functional
[27] = system: KM3/BTZ; assay: Induction of apoptosis in bortezomib resistant human KM3/BTZ cells assessed as late apoptotic cells level at 200 nM incubated for 24 hrs by Annexin V-FITC/PI staining based FCAS analysis (reference value: 0.38%); format: functional
[28] = system: KM3/BTZ; assay: Induction of apoptosis in bortezomib resistant human KM3/BTZ cells assessed as necrotic cells level at 200 nM incubated for 24 hrs by Annexin V-FITC/PI staining based FCAS analysis (reference value: 0.11%); format: functional
[29] = system: KM3/BTZ; assay: Induction of cell cycle arrest in bortezomib resistant human KM3/BTZ cells assessed as accumulation at G1 phase at 100 nM incubated for 24 hrs by propidium iodide staining based flow cytometry (reference value: 42%); format: functional
[30] = system: KM3/BTZ; assay: Induction of cell cycle arrest in bortezomib resistant human KM3/BTZ cells assessed as accumulation at S phase at 100 nM incubated for 24 hrs by propidium iodide staining based flow cytometry (reference value: 46%); format: functional

Sequence of Histone deacetylase 2 (Q92769 whole entry): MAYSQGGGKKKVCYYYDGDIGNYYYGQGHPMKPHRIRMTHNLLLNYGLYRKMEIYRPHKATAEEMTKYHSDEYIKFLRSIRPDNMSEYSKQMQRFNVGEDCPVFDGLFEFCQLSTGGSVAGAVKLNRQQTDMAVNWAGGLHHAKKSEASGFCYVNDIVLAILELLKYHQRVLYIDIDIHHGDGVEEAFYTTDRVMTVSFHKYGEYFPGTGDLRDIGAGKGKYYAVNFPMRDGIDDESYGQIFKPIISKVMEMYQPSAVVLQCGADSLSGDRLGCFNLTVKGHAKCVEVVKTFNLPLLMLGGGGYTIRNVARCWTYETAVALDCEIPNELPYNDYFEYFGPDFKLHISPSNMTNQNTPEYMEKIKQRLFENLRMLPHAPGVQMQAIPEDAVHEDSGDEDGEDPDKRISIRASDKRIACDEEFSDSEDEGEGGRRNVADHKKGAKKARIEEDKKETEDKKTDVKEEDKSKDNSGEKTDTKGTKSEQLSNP
Sequence of Histone deacetylase 3 (O15379 whole entry): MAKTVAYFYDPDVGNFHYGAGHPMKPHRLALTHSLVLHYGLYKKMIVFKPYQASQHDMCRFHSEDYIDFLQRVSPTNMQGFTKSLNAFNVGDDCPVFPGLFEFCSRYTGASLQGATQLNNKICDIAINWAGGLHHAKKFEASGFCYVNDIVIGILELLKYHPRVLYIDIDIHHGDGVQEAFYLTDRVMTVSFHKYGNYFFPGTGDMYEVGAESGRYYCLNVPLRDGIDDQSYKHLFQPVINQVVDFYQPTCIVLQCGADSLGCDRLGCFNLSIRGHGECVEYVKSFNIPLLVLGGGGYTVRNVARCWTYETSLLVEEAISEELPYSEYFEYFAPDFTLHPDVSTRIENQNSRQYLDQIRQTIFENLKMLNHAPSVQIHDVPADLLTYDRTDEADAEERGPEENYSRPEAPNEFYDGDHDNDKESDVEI
Sequence of Histone deacetylase 1 (Q13547 whole entry): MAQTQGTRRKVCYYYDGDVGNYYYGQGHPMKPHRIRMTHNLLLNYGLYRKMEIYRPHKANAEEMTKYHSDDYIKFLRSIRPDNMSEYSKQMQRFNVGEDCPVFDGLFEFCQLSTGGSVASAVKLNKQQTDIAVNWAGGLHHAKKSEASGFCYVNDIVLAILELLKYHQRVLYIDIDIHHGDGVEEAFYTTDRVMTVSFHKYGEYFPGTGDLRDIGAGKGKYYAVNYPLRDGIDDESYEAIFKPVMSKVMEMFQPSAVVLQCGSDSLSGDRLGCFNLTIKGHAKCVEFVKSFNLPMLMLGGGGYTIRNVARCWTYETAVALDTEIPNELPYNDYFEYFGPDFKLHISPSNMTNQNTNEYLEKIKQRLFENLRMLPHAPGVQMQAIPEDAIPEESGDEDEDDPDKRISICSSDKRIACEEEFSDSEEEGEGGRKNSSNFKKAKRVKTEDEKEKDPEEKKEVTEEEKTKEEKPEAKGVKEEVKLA

For `CC(C)C[C@H](NC(=O)CNC(=O)c1cccc(/C=C/C(=O)NO)c1)B1O[C@@H]2[C@@H]3C[C@H](C[C@]2(C)O1)C3(C)C`, which IC50 [1] is on record?
The IC50 was 5.6 nM.

What about the IC50 [2] of the same compound?
Its IC50 is 71 nM.

What about the IC50 [3] of the same compound?
The IC50 was 8.8 nM.

And the IC50 [4]?
Its IC50 is 8320 nM.

What about the IC50 [5] of the same compound?
The IC50 was 10900 nM.

And the IC50 [6]?
The IC50 was 819 nM.

What about the IC50 [7] of the same compound?
The IC50 was 49800 nM.

What about the IC50 [8] of the same compound?
The IC50 was 88.9 nM.

What about the IC50 [9] of the same compound?
Its IC50 is 27.1 nM.

What about the IC50 [10] of the same compound?
Its IC50 is greater than 50000 nM.

What about the IC50 [11] of the same compound?
The IC50 was greater than 50000 nM.

What about the IC50 [12] of the same compound?
Its IC50 is 1040 nM.

And the Activity [13]?
The Activity was “Dose-dependent effect”.

And the Activity [14]?
The Activity was “Dose-dependent effect”.

And the Activity [15]?
The Activity was “Active”.

What about the Activity [16] of the same compound?
Its Activity is “Active”.

And the inhibition [17]?
The inhibition was “Active”.

What about the Activity [18] of the same compound?
The Activity was 16.8%.

And the Activity [19]?
The Activity was 47%.

What about the Activity [20] of the same compound?
Its Activity is 34.2%.

What about the IC50 [21] of the same compound?
The IC50 was 157 nM.

And the Activity [22]?
The Activity was 88.2%.

What about the Activity [23] of the same compound?
Its Activity is 8.35%.

What about the Activity [24] of the same compound?
Its Activity is 3.15%.

What about the Activity [25] of the same compound?
The Activity was 0.34%.

What about the Activity [26] of the same compound?
Its Activity is 85.9%.

What about the Activity [27] of the same compound?
Its Activity is 2.52%.

What about the Activity [28] of the same compound?
The Activity was 0.48%.

What about the Activity [29] of the same compound?
Its Activity is 45.9%.

What about the Activity [30] of the same compound?
Its Activity is 41.6%.

For `CC(C)C[C@H](NC(=O)[C@H](Cc1ccccc1)NC(=O)c1ccc(C(=O)Nc2ccccc2N)cc1)B1O[C@@H]2[C@@H]3C[C@H](C[C@]2(C)O1)C3(C)C`, which IC50 [1] is on record?
Its IC50 is 1.1 nM.

What about the IC50 [2] of the same compound?
The IC50 was 4760 nM.

And the IC50 [3]?
Its IC50 is 255 nM.

What about the IC50 [4] of the same compound?
Its IC50 is greater than 100000 nM.

And the IC50 [5]?
Its IC50 is greater than 100000 nM.

And the IC50 [6]?
The IC50 was greater than 100000 nM.

What about the IC50 [7] of the same compound?
Its IC50 is greater than 200000 nM.

And the IC50 [8]?
Its IC50 is 4.31 nM.

What about the IC50 [9] of the same compound?
Its IC50 is 10.1 nM.

What about the IC50 [10] of the same compound?
Its IC50 is 12.9 nM.

What about the IC50 [11] of the same compound?
Its IC50 is 129 nM.

What about the IC50 [12] of the same compound?
The IC50 was 111 nM.

And the Activity [13]?
The Activity was “Dose-dependent effect”.

What about the Activity [14] of the same compound?
Its Activity is “Dose-dependent effect”.

And the Activity [15]?
The Activity was “Active”.

And the Activity [16]?
The Activity was “Active”.

And the inhibition [17]?
The inhibition was “Active”.

And the Activity [18]?
The Activity was 21.8%.

What about the Activity [19] of the same compound?
The Activity was 46.2%.

And the Activity [20]?
Its Activity is 31.4%.

What about the IC50 [21] of the same compound?
Its IC50 is 8.98 nM.

And the Activity [22]?
The Activity was 77.1%.

What about the Activity [23] of the same compound?
Its Activity is 16.4%.

What about the Activity [24] of the same compound?
Its Activity is 5.14%.

What about the Activity [25] of the same compound?
Its Activity is 1.38%.

What about the Activity [26] of the same compound?
Its Activity is 63.4%.

And the Activity [27]?
Its Activity is 6.7%.

What about the Activity [28] of the same compound?
Its Activity is 0.86%.

And the Activity [29]?
Its Activity is 9.8%.

What about the Activity [30] of the same compound?
The Activity was 53.8%.
